Experimental data from ChEMBL document CHEMBL5143686, “Development of Azaindole-Based Frameworks as Potential Antiviral Agents and Their Future Perspectives” (J Med Chem, 2022).
≈ marks a conversion by molar mass, not a printed value.

Columns and labels:
[1] = system: Human immunodeficiency virus 1; assay: Antiviral activity against HIV-1 assessed as inhibition of viral growth; assay type: functional, organism-based
[2] = Solubility of the compound at pH 5.4; assay type: physicochemical; conditions: buffer
[3] = Basic dissociation constant, pKa of the compound
[4] = system: Human immunodeficiency virus 1; assay: Antiviral activity against HIV-1 JR-CSF assessed as inhibition of viral growth; assay type: functional, organism-based; conditions: Human immunodeficiency virus 1, JR-CSF
[5] = Oral bioavailability in monkey; assay type: ADME, organism-based, Macaca mulatta; conditions: rhesus monkey, in vivo
[6] = Oral bioavailability in rat; assay type: ADME, organism-based; conditions: in vivo
[7] = system: Human immunodeficiency virus 1; assay: Antiviral activity against HIV-1 NL4-3 T-tropic (X4) infected in human MT2 cells assessed as inhibition of viral growth by ELISA; assay type: functional, organism-based; conditions: Human immunodeficiency virus 1, NL4-3 T-tropic (X4)
[8] = system: Human immunodeficiency virus 1; assay: Antiviral activity against HIV-1 JRFL macrophage-tropic (R5) infected in human PM1 cells assessed as inhibition of viral growth by ELISA; assay type: functional, organism-based; conditions: Human immunodeficiency virus 1, JRFL macrophage-tropic (R5)
[9] = system: Human immunodeficiency virus 1; assay: Antiviral activity against HIV-1 TLAV T-tropic (X4)/macrophage-tropic (R5) infected in human MT2 cells assessed as inhibition of viral growth by ELISA; assay type: functional, organism-based; conditions: Human immunodeficiency virus 1, TLAV T-tropic (X4)/macrophage-tropic (R5)
[10] = system: Human immunodeficiency virus 1; assay: Antiviral activity against HIV-1 SF-2 T-tropic (X4) infected in human MT2 cells assessed as inhibition of viral growth by ELISA; assay type: functional, organism-based; conditions: Human immunodeficiency virus 1, SF-2 T-tropic (X4)
[11] = Aqueous solubility of the compound; assay type: physicochemical
[12] = Oral bioavailability in dog; assay type: ADME, organism-based, Canis lupus familiaris; conditions: in vivo
[13] = system: Human immunodeficiency virus 1; assay: Antiviral activity against HIV-1 SF-162 macrophage-tropic (R5) infected in human PM1 cells assessed as inhibition of viral growth by ELISA; assay type: functional, organism-based; conditions: Human immunodeficiency virus 1, SF-162 macrophage-tropic (R5)
[14] = system: Human immunodeficiency virus 1; assay: Antiviral activity against HIV-1 LAI T-tropic (X4) infected in human MT2 cells assessed as inhibition of viral growth by ELISA; assay type: functional, organism-based; conditions: Human immunodeficiency virus 1, LAI T-tropic (X4)
[15] = system: Human immunodeficiency virus 1; assay: Antiviral activity against HIV-1 Bal macrophage-tropic (R5) infected in human PM1 cells assessed as inhibition of viral growth by ELISA; assay type: functional, organism-based; conditions: Human immunodeficiency virus 1, Bal macrophage-tropic (R5)

SMILES: Cc1csc(-c2ccc(F)c3c(C(=O)C(=O)N4CCN(C(=O)c5ccccc5)CC4)c[nH]c23)n1
- EC50 [1]: 0.0058 nM

SMILES: COc1cnc(OC)c2c1c(C(=O)C(=O)N1CCN(C(=O)c3ccccc3)CC1)cn2COP(=O)(O)O.NCCCC[C@H](N)C(=O)O
- solubility [2]: > 12000 µg/mL

SMILES: c1cc2cc[nH]c2cn1
- pKa [3]: 7.93

SMILES: Cc1ncn(-c2ncc(F)c3c(C(=O)C(=O)N4CC5CN(C(=O)c6ccccc6)CC5C4)c[nH]c23)n1 (stereo not given)
- IC50 [4]: 0.8 nM

SMILES: COc1ncc(OC)c2c(C(=O)C(=O)N3CCN(C(=O)c4ccccc4)CC3)c[nH]c12
- bioavailability [5]: 60%
- bioavailability [6]: 90%

SMILES: c1cnc2cc[nH]c2c1
- pKa [3]: 6.94

SMILES: COc1ccnc2[nH]cc(C(=O)C(=O)N3CCN(C(=O)c4ccccc4)C[C@@H]3C)c12
- EC50 [7]: 2.94 nM
- EC50 [8]: 1.47 nM
- EC50 [9]: 0.85 nM
- bioavailability [5]: 24%
- EC50 [10]: 26.5 nM
- solubility [11]: 170 µg/mL (≈ 418 µM)
- bioavailability [12]: 77%
- bioavailability [6]: 19%
- EC50 [13]: 3.46 nM
- EC50 [14]: 2.68 nM
- EC50 [15]: 15.5 nM

SMILES: c1cc2[nH]ccc2cn1
- pKa [3]: 8.26

SMILES: O=C(C(=O)N1CCN(C(=O)c2ccccc2)CC1)c1c[nH]c2c(-c3nccs3)ccc(F)c12
- EC50 [1]: 0.057 nM
